Test results published in ChEMBL document CHEMBL1764984 (J Med Chem, 2011).
Converted amounts (≈) assume the structure as drawn. Values belong to the compound of their own block, whether it stands above or below them.

Legend:
[1] = tested on: Blood; assay: Inhibition of TNFalpha-induced IL1-beta production in human whole blood after 2 to 5 hrs by ELISA; format: functional, tissue-based
[2] = target: Mitogen-activated protein kinase 14 (Homo sapiens, UniProt Q16539); assay: Inhibition of human recombinant p38alpha assessed as incorporation of 33P from gamma-[33P]ATP into myelin basic protein after 30 mins by scintillation counting
Mitogen-activated protein kinase 14, sequence (Q16539 whole entry): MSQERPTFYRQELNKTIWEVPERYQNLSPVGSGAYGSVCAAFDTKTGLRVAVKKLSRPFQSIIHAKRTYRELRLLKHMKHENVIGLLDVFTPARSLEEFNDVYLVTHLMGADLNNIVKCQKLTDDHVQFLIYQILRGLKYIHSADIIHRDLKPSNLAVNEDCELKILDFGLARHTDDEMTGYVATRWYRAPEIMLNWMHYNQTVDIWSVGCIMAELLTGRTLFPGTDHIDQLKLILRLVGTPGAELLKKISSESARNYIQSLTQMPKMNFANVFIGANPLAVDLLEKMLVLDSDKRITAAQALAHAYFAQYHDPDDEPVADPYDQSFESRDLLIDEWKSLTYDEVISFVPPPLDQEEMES

[3] = Half life in cynomolgus monkey at 10 mg/kg, po; format: ADME, organism-based, Macaca fascicularis; parameters: dose 10 mg/kg, route oral; settings: in vivo
[4] = target: Serine/threonine-protein kinase NLK (Homo sapiens, UniProt Q9UBE8); assay: Inhibition of NLK
[5] = Cmax in cynomolgus monkey at 10 mg/kg, po; format: ADME, organism-based, Macaca fascicularis; parameters: dose 10 mg/kg, route oral; settings: in vivo
[6] = Volume of distribution at steady state in cynomolgus monkey at 10 mg/kg, iv; format: ADME, organism-based, Macaca fascicularis; parameters: dose 10 mg/kg, route intravenous; settings: in vivo, read-out: Vdss
[7] = tested on: Rattus norvegicus; assay: Inhibition of LPS-induced TNFalpha production in po dosed rat serum administered 30 mins before LPS challenge measured after […] by ELISA; format: functional, organism-based
[8] = Permeability of the compound from apical to basolateral side of human Caco2 cells at 10 uM after 21 days; format: ADME, cell-based; settings: Caco-2, read-out: permeability
[9] = tested on: Rattus norvegicus; assay: Analgesic activity in po dosed rat inflammatory yeast hyperalgesia model assessed as increase in tolerance to pressure; format: functional, organism-based; settings: po
[10] = target: Cytochrome P450 2C19 (Homo sapiens, UniProt P33261); assay: Inhibition of human CYP2C19; format: ADME
Cytochrome P450 2C19, sequence (P33261 whole entry): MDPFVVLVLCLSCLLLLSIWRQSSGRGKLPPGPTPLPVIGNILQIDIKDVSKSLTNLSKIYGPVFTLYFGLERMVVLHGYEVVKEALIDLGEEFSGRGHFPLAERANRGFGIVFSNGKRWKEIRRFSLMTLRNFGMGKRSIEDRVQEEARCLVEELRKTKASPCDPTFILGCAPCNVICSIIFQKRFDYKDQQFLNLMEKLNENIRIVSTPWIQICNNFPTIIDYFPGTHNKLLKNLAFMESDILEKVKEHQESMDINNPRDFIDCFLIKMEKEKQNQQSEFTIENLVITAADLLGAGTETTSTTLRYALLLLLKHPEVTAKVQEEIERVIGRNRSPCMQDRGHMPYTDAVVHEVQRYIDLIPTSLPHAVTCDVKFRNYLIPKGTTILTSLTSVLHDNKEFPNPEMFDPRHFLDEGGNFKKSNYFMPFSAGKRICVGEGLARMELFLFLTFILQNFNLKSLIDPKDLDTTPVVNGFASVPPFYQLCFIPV

[11] = target: Mitogen-activated protein kinase 11 (Homo sapiens, UniProt Q15759); assay: Inhibition of P38beta
Mitogen-activated protein kinase 11, sequence (Q15759 whole entry): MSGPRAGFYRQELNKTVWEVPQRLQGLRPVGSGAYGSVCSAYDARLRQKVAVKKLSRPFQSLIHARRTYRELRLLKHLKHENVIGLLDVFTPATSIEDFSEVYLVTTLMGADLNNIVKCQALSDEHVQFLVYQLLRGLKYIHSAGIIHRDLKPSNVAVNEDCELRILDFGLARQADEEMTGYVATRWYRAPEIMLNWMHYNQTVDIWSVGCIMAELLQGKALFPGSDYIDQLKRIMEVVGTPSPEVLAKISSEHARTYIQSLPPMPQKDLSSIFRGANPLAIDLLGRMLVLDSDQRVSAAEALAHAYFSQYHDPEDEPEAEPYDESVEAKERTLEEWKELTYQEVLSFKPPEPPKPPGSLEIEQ

[12] = target: Cytochrome P450 3A4 (Homo sapiens, UniProt P08684); assay: Inhibition of human CYP3A4; format: ADME
Cytochrome P450 3A4, sequence (P08684 whole entry): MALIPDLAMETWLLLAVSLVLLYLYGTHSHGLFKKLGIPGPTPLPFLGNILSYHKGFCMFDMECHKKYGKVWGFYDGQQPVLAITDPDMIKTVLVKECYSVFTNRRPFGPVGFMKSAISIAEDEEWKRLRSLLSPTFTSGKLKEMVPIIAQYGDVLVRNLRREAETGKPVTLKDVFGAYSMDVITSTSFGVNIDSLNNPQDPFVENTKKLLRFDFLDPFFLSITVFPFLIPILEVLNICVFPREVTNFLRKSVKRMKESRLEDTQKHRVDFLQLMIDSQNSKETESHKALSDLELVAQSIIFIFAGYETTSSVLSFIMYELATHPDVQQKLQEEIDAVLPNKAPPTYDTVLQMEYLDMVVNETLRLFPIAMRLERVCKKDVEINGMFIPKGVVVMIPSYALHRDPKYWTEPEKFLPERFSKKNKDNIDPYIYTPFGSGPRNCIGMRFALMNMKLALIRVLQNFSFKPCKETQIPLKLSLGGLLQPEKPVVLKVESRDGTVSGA

[13] = target: Mitogen-activated protein kinase 10 (Homo sapiens, UniProt P53779); assay: Inhibition of JNK3
[14] = Plasma protein binding in cynomolgus monkey by untrafiltration method; format: ADME, cell-free, Macaca fascicularis; settings: read-out: PPB (converted)
[15] = target: Serine/threonine-protein kinase 36 (Homo sapiens, UniProt Q9NRP7); assay: Inhibition of STK36
Serine/threonine-protein kinase 36, sequence (Q9NRP7 whole entry): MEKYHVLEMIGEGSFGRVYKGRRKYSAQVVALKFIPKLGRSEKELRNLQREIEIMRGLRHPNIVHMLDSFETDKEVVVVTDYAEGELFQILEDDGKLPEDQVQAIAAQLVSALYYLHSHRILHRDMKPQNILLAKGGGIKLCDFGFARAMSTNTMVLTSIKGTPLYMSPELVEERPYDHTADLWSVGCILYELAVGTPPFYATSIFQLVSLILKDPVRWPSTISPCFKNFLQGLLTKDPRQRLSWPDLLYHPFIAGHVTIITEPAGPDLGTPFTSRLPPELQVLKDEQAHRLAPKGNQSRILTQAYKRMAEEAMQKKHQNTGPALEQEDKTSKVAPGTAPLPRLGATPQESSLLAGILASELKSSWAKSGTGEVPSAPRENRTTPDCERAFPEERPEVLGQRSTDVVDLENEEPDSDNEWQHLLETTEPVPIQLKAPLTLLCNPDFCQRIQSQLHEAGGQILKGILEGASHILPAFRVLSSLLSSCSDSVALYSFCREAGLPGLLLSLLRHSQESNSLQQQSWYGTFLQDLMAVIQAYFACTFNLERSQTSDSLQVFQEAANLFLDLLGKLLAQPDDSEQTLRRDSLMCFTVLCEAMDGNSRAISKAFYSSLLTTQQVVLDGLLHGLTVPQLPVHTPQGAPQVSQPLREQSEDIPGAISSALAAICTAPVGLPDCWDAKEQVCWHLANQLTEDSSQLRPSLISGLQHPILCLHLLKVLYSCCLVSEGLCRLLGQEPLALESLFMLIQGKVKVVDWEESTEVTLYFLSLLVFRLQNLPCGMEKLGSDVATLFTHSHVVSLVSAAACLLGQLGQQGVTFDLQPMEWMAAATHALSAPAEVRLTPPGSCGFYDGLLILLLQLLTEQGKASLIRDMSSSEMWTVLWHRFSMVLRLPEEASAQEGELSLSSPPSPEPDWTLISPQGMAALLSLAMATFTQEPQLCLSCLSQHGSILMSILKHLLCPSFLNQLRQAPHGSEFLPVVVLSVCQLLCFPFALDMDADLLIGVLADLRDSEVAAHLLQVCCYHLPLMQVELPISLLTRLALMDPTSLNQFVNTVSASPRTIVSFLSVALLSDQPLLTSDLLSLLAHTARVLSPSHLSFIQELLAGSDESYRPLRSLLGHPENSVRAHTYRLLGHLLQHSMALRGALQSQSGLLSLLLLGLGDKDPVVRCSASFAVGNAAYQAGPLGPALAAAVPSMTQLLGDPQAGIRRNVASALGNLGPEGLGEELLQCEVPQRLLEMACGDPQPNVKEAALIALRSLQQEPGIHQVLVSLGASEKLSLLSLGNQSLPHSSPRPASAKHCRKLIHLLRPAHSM

[16] = tested on: THP-1; assay: Inhibition of LPS-induced TNFalpha production in human THP1 cells after 2 hrs by ELISA; format: functional, cell-based; settings: THP-1, 2 h
[17] = target: Cytochrome P450 2C9 (Homo sapiens, UniProt P11712); assay: Inhibition of human CYP2C9; format: ADME
[18] = tested on: Rattus norvegicus; assay: Inhibition of LPS-induced IL-6 production in po dosed rat serum administered 30 mins before LPS challenge measured after […] by ELISA; format: functional, organism-based
[19] = AUC (infinity) in cynomolgus monkey at 10 mg/kg, po; format: ADME, organism-based, Macaca fascicularis; parameters: time infinity, dose 10 mg/kg, route oral; settings: plasma
[20] = target: Casein kinase I isoform epsilon (Homo sapiens, UniProt P49674); assay: Inhibition of CSNK1epsilon
[21] = Clearance in cynomolgus monkey at 10 mg/kg, iv; format: ADME, organism-based, Macaca fascicularis; parameters: dose 10 mg/kg, route intravenous; settings: in vivo
[22] = tested on: Rattus norvegicus; assay: Inhibition of TNF-alpha-induced IL-6 production in po dosed rat plasma administered 30 mins before TNFalpha challenge measured after 2 hrs by ELISA; format: functional, organism-based
[23] = target: Cytochrome P450 1A2 (Homo sapiens, UniProt P05177); assay: Inhibition of human CYP1A2; format: ADME
Cytochrome P450 1A2, sequence (P05177 whole entry): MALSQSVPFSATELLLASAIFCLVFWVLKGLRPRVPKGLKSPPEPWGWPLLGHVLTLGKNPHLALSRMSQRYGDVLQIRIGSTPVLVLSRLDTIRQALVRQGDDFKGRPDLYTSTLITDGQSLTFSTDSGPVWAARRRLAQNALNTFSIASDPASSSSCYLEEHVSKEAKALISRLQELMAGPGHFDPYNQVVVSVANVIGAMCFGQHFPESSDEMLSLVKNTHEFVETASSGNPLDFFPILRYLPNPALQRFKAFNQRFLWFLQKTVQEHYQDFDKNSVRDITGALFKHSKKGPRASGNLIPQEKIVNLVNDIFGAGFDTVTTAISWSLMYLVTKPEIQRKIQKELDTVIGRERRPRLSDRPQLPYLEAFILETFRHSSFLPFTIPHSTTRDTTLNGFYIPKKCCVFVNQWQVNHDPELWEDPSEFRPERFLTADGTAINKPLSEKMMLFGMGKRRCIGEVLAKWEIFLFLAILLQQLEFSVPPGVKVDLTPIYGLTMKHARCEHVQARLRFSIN

[24] = tested on: Rattus norvegicus; assay: Inhibition of LPS-induced TNFalpha production in rat serum at 3 mg/kg, po administered 30 mins before LPS challenge measured after […] by ELISA; format: functional
[25] = Permeability of the compound from basolateral to apical side of human Caco2 cells at 10 uM after 21 days; format: ADME, cell-based; settings: Caco-2, read-out: permeability
[26] = Aqueous solubility of the compound in phosphate buffer at pH 6.5; format: physicochemical
[27] = target: Atypical kinase COQ8A, mitochondrial (Homo sapiens, UniProt Q8NI60); assay: Inhibition of ADCK3
[28] = Tmax in cynomolgus monkey at 10 mg/kg, po; format: ADME, organism-based, Macaca fascicularis; parameters: dose 10 mg/kg, route oral; settings: in vivo
[29] = target: Ribosomal protein S6 kinase alpha-4 (Homo sapiens, UniProt O75676); assay: Inhibition of RSK4
[30] = Oral bioavailability in cynomolgus monkey at 10 mg/kg; format: ADME, organism-based, Macaca fascicularis; settings: in vivo
[31] = target: Epithelial discoidin domain-containing receptor 1 (Homo sapiens, UniProt Q08345); assay: Inhibition of DDR1
Epithelial discoidin domain-containing receptor 1, sequence (Q08345 whole entry, the tested form may be a part): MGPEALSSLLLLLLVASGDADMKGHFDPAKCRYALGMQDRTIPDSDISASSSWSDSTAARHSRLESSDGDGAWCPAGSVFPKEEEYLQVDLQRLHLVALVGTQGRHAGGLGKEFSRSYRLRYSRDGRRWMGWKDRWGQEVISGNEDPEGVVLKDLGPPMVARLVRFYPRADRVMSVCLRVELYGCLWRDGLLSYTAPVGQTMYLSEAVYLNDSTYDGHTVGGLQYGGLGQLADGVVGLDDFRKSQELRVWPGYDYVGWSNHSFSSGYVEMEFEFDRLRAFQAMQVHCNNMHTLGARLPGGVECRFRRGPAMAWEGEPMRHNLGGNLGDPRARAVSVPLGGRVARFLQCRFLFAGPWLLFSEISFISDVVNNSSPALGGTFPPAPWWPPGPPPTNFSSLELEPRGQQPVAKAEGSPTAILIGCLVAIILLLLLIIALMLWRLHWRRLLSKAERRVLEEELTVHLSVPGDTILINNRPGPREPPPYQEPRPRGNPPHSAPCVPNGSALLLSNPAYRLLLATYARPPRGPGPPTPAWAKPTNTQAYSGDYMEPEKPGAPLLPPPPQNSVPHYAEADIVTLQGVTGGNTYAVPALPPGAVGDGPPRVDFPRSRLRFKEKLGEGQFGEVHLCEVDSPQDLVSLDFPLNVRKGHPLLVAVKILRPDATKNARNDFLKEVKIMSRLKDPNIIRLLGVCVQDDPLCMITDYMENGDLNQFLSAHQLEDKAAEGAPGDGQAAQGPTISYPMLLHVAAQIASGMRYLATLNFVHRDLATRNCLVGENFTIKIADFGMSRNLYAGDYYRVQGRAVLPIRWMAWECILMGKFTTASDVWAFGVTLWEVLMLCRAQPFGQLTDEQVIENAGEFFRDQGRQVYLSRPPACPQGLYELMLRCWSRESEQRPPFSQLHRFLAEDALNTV

[32] = target: Cytochrome P450 2D6 (Homo sapiens, UniProt P10635); assay: Inhibition of human CYP2D6; format: ADME
Cytochrome P450 2D6, sequence (P10635 whole entry): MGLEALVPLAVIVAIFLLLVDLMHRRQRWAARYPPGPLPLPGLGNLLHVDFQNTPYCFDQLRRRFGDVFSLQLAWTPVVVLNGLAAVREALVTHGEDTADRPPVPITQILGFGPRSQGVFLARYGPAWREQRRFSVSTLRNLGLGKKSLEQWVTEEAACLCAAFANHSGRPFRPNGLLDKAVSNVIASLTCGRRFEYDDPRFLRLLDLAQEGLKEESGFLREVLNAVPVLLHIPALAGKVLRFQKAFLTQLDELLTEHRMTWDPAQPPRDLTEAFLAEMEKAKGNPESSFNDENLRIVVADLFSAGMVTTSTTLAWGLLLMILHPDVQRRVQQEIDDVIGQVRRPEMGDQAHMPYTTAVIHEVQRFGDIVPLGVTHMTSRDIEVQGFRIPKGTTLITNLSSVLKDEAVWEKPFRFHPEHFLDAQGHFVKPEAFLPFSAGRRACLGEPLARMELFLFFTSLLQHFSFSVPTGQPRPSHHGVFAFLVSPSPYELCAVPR

[33] = target: Tyrosine-protein kinase Lck (Homo sapiens, UniProt P06239); assay: Inhibition of LCK

Compound: Cn1c(=O)c(Oc2ccc(F)cc2F)cc2cnc(NC3CCOCC3)nc21 [R-1487]
- half-life [3]: 22.5 h
- Kd [4]: 6 nM
- Cmax [5]: 1560 ng/mL
- Vd [6]: 2.73 L/kg
- EC50 [7]: 30 nM
- ED50 ([7]; po): 0.8 mg/kg
- Papp A→B at 10 µM [8]: 33 ×10⁻⁶ cm/s
- ED50 [9]: 5.5 mg/kg
- IC50 [10]: > 40000 nM
- Kd [11]: 29 nM
- IC50 [12]: > 40000 nM
- Kd [13]: 3 nM
- fraction unbound [14]: 0.046
- Kd [15]: 330 nM
- IC50 [16]: 47 nM
- IC50 [17]: > 40000 nM
- EC50 [18]: 10 nM
- ED50 ([18]; po): 0.4 mg/kg
- AUC(0-inf) [19]: 29400 ng·h/mL
- Kd [20]: > 1000 nM
- IC50 [1]: 170 nM
- clearance [21]: 3.05 mL/min/kg
- EC50 [22]: 20 nM
- ED50 ([22]; po): 0.4 mg/kg
- IC50 [23]: > 40000 nM
- inhibition in vivo at 3 mg/kg [24]: 68%
- Papp B→A at 10 µM [25]: 23.7 ×10⁻⁶ cm/s
- solubility [26]: 6 µg/mL (≈ 15.4 µM)
- Kd [27]: 320 nM
- Tmax [28]: 4.67 h
- Kd [29]: 73 nM
- bioavailability [30]: 51.6%
- Kd [31]: 270 nM
- IC50 [32]: > 40000 nM

Compound: CS(=O)(=O)N1CCC(n2c(=O)c(Oc3ccc(F)cc3F)cc3cnc(NC4CCOCC4)nc32)CC1
- IC50 [1]: 52 nM
- IC50 [2]: 1 nM

Compound: Cn1c(=O)c(Cc2ccccc2F)cc2cnc(NC3CCOCC3)nc21
- IC50 [1]: 407 nM
- IC50 [2]: 42 nM

Compound: Cn1c(=O)c(Cc2ccc(F)cc2F)cc2cnc(NC3CCOCC3)nc21
- IC50 [1]: 713 nM
- IC50 [2]: 40 nM

Compound: Cn1c(=O)c(Oc2ccc(F)cc2F)cc2cnc(NCC(C)(C)O)nc21
- IC50 [2]: 67 nM

Compound: Cn1c(=O)c(Sc2ccccc2F)cc2cnc(NC3CCOCC3)nc21
- IC50 [1]: 731 nM
- IC50 [2]: 111 nM

Compound: CS(=O)(=O)CCCn1c(=O)c(Oc2ccc(F)cc2F)cc2cnc(NC3CCOCC3)nc21
- IC50 [1]: 18 nM
- IC50 [2]: 6 nM

Compound: O=c1c(Oc2ccc(F)cc2F)cc2cnc(NC3CCOCC3)nc2n1CCCO
- IC50 [1]: 14 nM

Compound: Cn1c(=O)c(Oc2ccc(F)cc2)cc2cnc(NC3CCOCC3)nc21
- IC50 [1]: 547 nM

Compound: Cn1c(=O)c(-c2ccccc2Cl)cc2cnc(NC3CCOCC3)nc21
- IC50 [1]: 85.7 nM
- Kd [33]: 1800 nM

Compound: Cn1c(=O)c(Oc2ccc(F)cc2F)cc2cnc(N[C@H]3CCOC3)nc21
- IC50 [1]: 373 nM
- IC50 [2]: 31 nM

Continued by falling IC50 [1], values first:

- IC50 [1]: 1490 nM
- IC50 [2]: 223 nM
Compound: Cn1c(=O)c(Oc2ccc(F)cc2F)cc2cnc(NCCS(C)(=O)=O)nc21

- IC50 [1]: 308 nM
- IC50 [2]: 20 nM
Compound: CS(=O)(=O)CCn1c(=O)c(Oc2ccc(F)cc2F)cc2cnc(NC3CCOCC3)nc21

- IC50 [1]: 189 nM
- IC50 [2]: 158 nM
Compound: Cn1c(=O)c(Oc2ccc(F)cc2F)cc2cnc(NC(CO)CO)nc21

- IC50 [1]: 84 nM
- IC50 [2]: 18 nM
Compound: O=c1[nH]c2nc(NC3CCOCC3)ncc2cc1Oc1ccc(F)cc1F

- IC50 [1]: 84 nM
- IC50 [2]: 12 nM
Compound: CC(C)(O)Cn1c(=O)c(Oc2ccc(F)cc2F)cc2cnc(NC3CCOCC3)nc21

- IC50 [1]: 68 nM
- IC50 [2]: 4 nM
Compound: Cn1c(=O)c(Oc2ccc(F)cc2F)cc2cnc(N[C@H]3CC[C@H](O)CC3)nc21

- IC50 [1]: 15 nM
- IC50 [2]: 1 nM
Compound: CCn1c(=O)c(Oc2ccc(F)cc2F)cc2cnc(NC3CCOCC3)nc21

- Papp A→B at 10 µM [8]: 30.1 ×10⁻⁶ cm/s
- IC50 [1]: 9 nM
- Papp B→A at 10 µM [25]: 19.7 ×10⁻⁶ cm/s
- solubility [26]: 23 µg/mL (≈ 55.5 µM)
Compound: C[C@@H](Cn1ncnn1)Nc1ncc2cc(Oc3ccc(F)cc3F)c(=O)n(C)c2n1
- inhibition in vivo at 3 mg/kg [24]: 90%
